Key:
[1] = system: Host Versus Graft Reaction (HvGR) in the Rat; experiment: Inhibitory activity against host versus graft reaction (HvGR) in the rat; assay type: in vivo; conditions: Lewis rats injected with WKAH/Hkm spleen cells into hind foot pads; oral, once a day for 4 successive days; popliteal lymph node weight
Description: Determination of the Inhibitory Activity Against Host Versus Graft Reaction (HvGR) in the Rat
(1) Two Strains of Rats (Lewis Rats (Male, 6 Weeks Old, Charles River Japan) and WKAH/Hkm (Male, 7 Weeks Old, SLC Japan)) Were Used. Five Rats (Host) Per Group Were Used.
The spleen cells were isolated from the spleen of the rats and 1×10^8 cells were suspended in the RPMI640 medium (LIFE TECHNOLOGIES, Rockville Md. USA). One hundred microliter (1×10^7 cells) of the spleen cell suspension whose cells were isolated from either WKAH/Hkm rats or Lewis rats were subcutaneously injected into the bilateral feet pad of the hindlimbs of the Lewis rat.
(3) Administration of the Compound
The compound was suspended in 0.5% tragacanth solution The suspended compound was orally administered to rats in the drug-treated group (Lewis rats injected with spleen cells isolated from AH/Hkm rats, and treated with the compound) at a volume of 5 ml/kg. The treatment was started on the day of the spleen cell injection, once a day, for 4 successive days. Tragacanth solution (0.5%) was orally administered, instead of the suspension of the test compound, to the rats in the same strain group (Lewis rats injected with spleen cells which were isolated from the Lewis rats) and to the rats in the control group (Lewis rats injected spleen cells isolated from WKAH/Hkm rats, and not treated with the test compound).
(4) Determination Procedures for Inhibitory Activity Against HvGR
The average weight of the popliteal lymph node of the same strain rats was subtracted from the weight of the popliteal lymph node of the individual rat (popliteal lymph gland weight due to HvGR). The inhibition rate of the popliteal lymph node weight due to HvGR of the individual rat treated with the test compound against the average weight of the control rats was calculated. The inhibitory activity of the test compound was expressed as an ID50 value (mg/kg) calculated from the dose-inhibition rate by the least square method.

Adjuvant Arthritis = experiment: Inhibitory activity on induction of adjuvant arthritis; assay type: in vivo, rat; conditions: adjuvant (Mycobacterium butylricum) in right hind paw of female Lewis rats; oral, once daily for 21 days; swelling volume of right hind paw
Protocol: Determination of the Inhibitory Activity of the Compounds of the Present Invention on Induction of Adjuvant Arthritis
1. Preparation of Adjuvant
Heat-killed, Mycobacterium butylricum was suspended in mineral oil at a concentration of 2 mg/ml and sonicated with an ultrasonic apparatus.
2. Preparation of the Test Compound.
The test compound was suspended in 0.5% Tragacanth solution.
3. Induction of Adjuvant Arthritis
The adjuvant prepared as described in 1 was intradermally injected into the right hind paw of the female rats (usually Lewis rats were used) at a volume of 0.05 ml. Five rats per group were used. In one group of rats, adjuvant was not injected for the control group.
4. Administration of the Compound
The compound solution prepared as described in 2 was orally administered to rats from the injection day of the adjuvant, once daily for 21 days, at a dose of 5 ml/kg. Tragacanth solution (0.5%) was orally administered to one group of rats treated with adjuvant (the control group) and also to rats not treated with adjuvant.
5. Calculation Methods of Inhibitory Activity of the Compound
The volume of the right hind paw was determined with a plethymometer. The volume of the intact paw was subtracted from the individual volume, and the difference was used as the swelling volume. Then the inhibitory activity of the compound was calculated from the individual swelling volume of rats treated with the compound and that in the swelling volume of the control rats. The ID50 value of the compound was obtained from the doses treated and the average inhibitory rate of the group.

C[C@](N)(CO)CCc1ccc(C#CCCCC2CCCCC2)s1 [Example 1, (2R)-Amino-2-methyl-4-[5-(5-Cyclohexylpent-1-ynyl)thiophen-2-yl]butan-1-ol]
HvGR ID50 values [1]: 0.0843 mg/kg | ID50 value (Adjuvant Arthritis): 0.0897 mg/kg

C[C@](N)(CO)CCc1ccc(CCCCCC2CCCCC2)s1 [Example 11, (2R)-Amino-2-methyl-4-[5-(5-Cyclohexylpent)thiophen-2-yl]butan-1-ol]
HvGR ID50 values [1]: 0.0844 mg/kg

Cc1ccc(OCC#Cc2ccc(CC[C@@](C)(N)CO)s2)cc1.O=C(O)/C=C\C(=O)O [Example 34, (2R)-Amino-2-methyl-4-{5-[3-(4-methylphenoxy)propynyl]thiophen-2-yl}butan-1-ol Maleate]
ID50 value (Adjuvant Arthritis): 0.0470 mg/kg

COc1ccc(OCC#Cc2ccc(CC[C@@](C)(N)CO)s2)cc1OC.O=C(O)/C=C\C(=O)O [Example 40, (2R)-Amino-2-methyl-4-{5-[3-(3,4-dimethoxphenoxy)propynyl]thiophen-2-yl}butan-1-ol Maleate]
HvGR ID50 values [1]: 0.0683 mg/kg

COc1cccc(OCC#Cc2ccc(CC[C@@](C)(N)CO)s2)c1.O=C(O)/C=C\C(=O)O [Example 43, (2R)-Amino-2-methyl-4-{5-[3-(3-methoxylphenoxy)propynyl]thiophen-2-yl}butan-1-ol Maleate]
HvGR ID50 values [1]: 0.0730 mg/kg

Cc1ccc(OCC#Cc2ccc(CC[C@@](C)(N)CO)s2)cc1C.O=C(O)/C=C\C(=O)O [Example 46, (2R)-Amino-2-methyl-4-{5-[3-(3,4-dimethylphenoxy)propynyl]thiophen-2-yl}butan-1-ol Maleate]
HvGR ID50 values [1]: 0.0454 mg/kg

CCCCCCCCc1ccc(CCC(N)(CO)CO)cc1.Cl [Reference Compound 1, reference compound]
HvGR ID50 values [1]: 0.354 mg/kg | ID50 value (Adjuvant Arthritis): 0.1666 mg/kg
